This is an account of results in ChEMBL document CHEMBL5608141, “Identification of compartment-specific drug sensitivities in CRC organoid-stroma co-cultures” (2024).

Format in all cases: functional, Homo sapiens
Holding throughout (set-up): dose or concentration left out as unconfirmed

Assay [1] deals with Colon cancer organoid. Kind of assay: Identification of compartment-specific drug sensitivities in O20 CRC organoid-stroma F20 CAF co-cultures. Organoid is transduced with Lucferase2-P2A-EGFP lentivirus, fibroblast with Renilla-dsRed lentivirus. Dual-Glo Luciferase assay is used to report viability data.
Assay [2] concerns Colon cancer organoid. Kind of assay: Identification of compartment-specific drug sensitivities in O14 CRC organoid-stroma F14 CAF co-cultures. Organoid is transduced with Lucferase2-P2A-EGFP lentivirus, fibroblast with Renilla-dsRed lentivirus. Dual-Glo Luciferase assay is used to report viability data.
Assay [3] deals with Colon cancer organoid. Description: Identification of compartment-specific drug sensitivities in O06 CRC organoid-stroma F06 CAF co-cultures. Organoid is transduced with Lucferase2-P2A-EGFP lentivirus, fibroblast with Renilla-dsRed lentivirus. Dual-Glo Luciferase assay is used to report viability data.
[4] abbreviates: Transduced with Lucferase2-P2A-EGFP lentivirus.
[5] abbreviates: Transduced with Renilla-dsRed lentivirus.

In the case of `CN(C)CCCOc1ccc(-c2cc(NCCCn3cccn3)nc(S(C)(=O)=O)n2)cc1`, the “Cell Viability” value in the assay on Colon cancer organoid [1] (setting [4]) is listed as 144.942%; in the assay on Colon cancer organoid [1] (setting [5]), 126.832%; in the assay on Colon cancer organoid [2] (setting [4]), 139.487%; in the assay on Colon cancer organoid [2] (setting [5]), 89.5427%; with Colon cancer organoid [3] (setting [4]) it was 126.468%; in the assay on Colon cancer organoid [3] (setting [5]), 129.443%.

In the case of `Cc1c(Nc2ccc(S(=O)(=O)N3CCN(C)CC3)cc2F)nc2ccc(Nc3cnn(C4CC4)c3)cn2c1=O`, the “Cell Viability” value is recorded as 118.006% in the assay on Colon cancer organoid [1] (setting [4]); 135.679% with Colon cancer organoid [1] (setting [5]); 108.37% in the assay on Colon cancer organoid [2] (setting [4]); 91.7144% in the assay with Colon cancer organoid [2] (setting [5]); 81.8172% with Colon cancer organoid [3] (setting [4]); 120.859% in the assay with Colon cancer organoid [3] (setting [5]).

As for `Cn1cncc1[C@@](O)(COc1ccc(C#N)cc1-c1ccc(OC(F)(F)F)cc1)c1ccc(C#N)cc1` [A-108], the “Cell Viability” value in the assay with Colon cancer organoid [1] (setting [4]) turned out to be 89.1467%; in the assay with Colon cancer organoid [1] (setting [5]) it was 110.638%; in the assay with Colon cancer organoid [2] (setting [4]), 94.7328%; in the assay with Colon cancer organoid [2] (setting [5]) it was 120.862%; in the assay on Colon cancer organoid [3] (setting [4]) it was 61.6996%; with Colon cancer organoid [3] (setting [5]) it was 139.827%.

As for `Cn1c(-c2csc(C3CCN(CC4=NC5N=CC=CC5N4)CC3)n2)nc2ccccc21` (centres undefined) [BAY-070], the “Cell Viability” value in the assay with Colon cancer organoid [1] (setting [4]) came out at 42.0794%; in the assay with Colon cancer organoid [1] (setting [5]) it was 84.0468%; with Colon cancer organoid [2] (setting [4]), 72.3778%; in the assay with Colon cancer organoid [2] (setting [5]), 60.078%; in the assay with Colon cancer organoid [3] (setting [4]), 29.934%; with Colon cancer organoid [3] (setting [5]), 49.5381%.

As to `CC(=O)NCC(=O)N1[C@@H]2CC[C@H]1c1ccc(Nc3ncc(C(F)(F)F)c(NC4CCC4)n3)cc12` [PF-03814735], the “Cell Viability” value in the assay with Colon cancer organoid [1] (setting [4]) was found to be 4.585%; with Colon cancer organoid [1] (setting [5]), 155.761%; with Colon cancer organoid [2] (setting [4]) it was 7.804%; in the assay with Colon cancer organoid [2] (setting [5]), 45.5161%; in the assay with Colon cancer organoid [3] (setting [4]), 12.0789%; in the assay on Colon cancer organoid [3] (setting [5]), 82.3636%.

For `Cc1cnc(Nc2ccc(F)cc2Cl)nc1-c1c[nH]c(C(=O)N[C@H](CO)c2cccc(Cl)c2)c1`, the “Cell Viability” value came to 6.88% in the assay on Colon cancer organoid [1] (setting [4]); 113.857% in the assay with Colon cancer organoid [1] (setting [5]); 47.0783% in the assay on Colon cancer organoid [2] (setting [4]); 28.0153% in the assay with Colon cancer organoid [2] (setting [5]); 51.8597% in the assay with Colon cancer organoid [3] (setting [4]); 63.6391% in the assay on Colon cancer organoid [3] (setting [5]).

As to `CC(=O)c1cc(-c2cc(C(=O)NC3CC3)ccc2C)c2ncccn12`, the “Cell Viability” value is recorded as 68.6867% in the assay on Colon cancer organoid [1] (setting [4]); 121.421% in the assay on Colon cancer organoid [1] (setting [5]); 131.291% in the assay with Colon cancer organoid [2] (setting [4]); 101.161% in the assay with Colon cancer organoid [2] (setting [5]); 95.4153% with Colon cancer organoid [3] (setting [4]); 118.795% in the assay on Colon cancer organoid [3] (setting [5]).

In the case of `COc1ccccc1S(=O)(=O)Nc1ccc2c(c1)CN(C)C(=O)N2`, the “Cell Viability” value in the assay on Colon cancer organoid [1] (setting [4]) amounted to 112.453%; in the assay on Colon cancer organoid [1] (setting [5]), 99.8859%; in the assay with Colon cancer organoid [2] (setting [4]), 127.49%; in the assay with Colon cancer organoid [2] (setting [5]) it was 84.3735%; in the assay on Colon cancer organoid [3] (setting [4]) it was 75.1061%; with Colon cancer organoid [3] (setting [5]) it was 112.248%.

As for `CCC(=O)N1CCN(c2ccc(-n3c(=O)ccc4cnc5ccc(-c6cnc7ccccc7c6)cc5c43)cc2C(F)(F)F)CC1` [TORIN1], the “Cell Viability” value in the assay with Colon cancer organoid [1] (setting [4]) stood at 7.451%; with Colon cancer organoid [1] (setting [5]) it was 44.8651%; in the assay on Colon cancer organoid [2] (setting [4]), 10.1866%; in the assay on Colon cancer organoid [2] (setting [5]) it was 12.2493%; in the assay with Colon cancer organoid [3] (setting [4]), 4.705%; in the assay on Colon cancer organoid [3] (setting [5]), 40.1911%.

As to `CCOC(=O)CCNc1cc(N2CCc3ccccc3CC2)nc(-c2ccccn2)n1`, the “Cell Viability” value in the assay on Colon cancer organoid [1] (setting [4]) was 101.525%; in the assay on Colon cancer organoid [1] (setting [5]), 127.032%; in the assay on Colon cancer organoid [2] (setting [4]), 102.142%; in the assay on Colon cancer organoid [2] (setting [5]), 98.2806%; in the assay on Colon cancer organoid [3] (setting [4]) it was 103.039%; in the assay on Colon cancer organoid [3] (setting [5]), 116.98%.

`NS(=O)(=O)c1cc(NC(=O)C2(c3ccccc3Cl)CC2)ccc1Oc1cccc(Cl)c1` [BAY-207]: the “Cell Viability” value was 177.814% in the assay on Colon cancer organoid [1] (setting [4]); 111.752% in the assay on Colon cancer organoid [1] (setting [5]); 120.584% in the assay on Colon cancer organoid [2] (setting [4]); 143.533% with Colon cancer organoid [2] (setting [5]); 102.145% in the assay on Colon cancer organoid [3] (setting [4]); 97.9535% in the assay with Colon cancer organoid [3] (setting [5]).

Turning to `CCOCCn1cc(C(=O)Nc2ccc(-n3nc(-c4cccnc4)cc3C(F)(F)F)cn2)ccc1=O` [BI 1935], the “Cell Viability” value is 76.3275% in the assay on Colon cancer organoid [1] (setting [4]); 148.205% with Colon cancer organoid [1] (setting [5]); 82.3072% with Colon cancer organoid [2] (setting [4]); 94.7961% with Colon cancer organoid [2] (setting [5]); 87.0785% with Colon cancer organoid [3] (setting [4]); 88.003% in the assay with Colon cancer organoid [3] (setting [5]).

With `CCC(=O)N[C@H]1CC[C@@H](C(=O)N(C)c2ccc(-c3nc4ccccc4o3)cc2)C1` [BI 99179], the “Cell Viability” value in the assay on Colon cancer organoid [1] (setting [4]) was 33.9891%; in the assay with Colon cancer organoid [1] (setting [5]), 149.12%; with Colon cancer organoid [2] (setting [4]), 77.0742%; with Colon cancer organoid [2] (setting [5]), 106.772%; with Colon cancer organoid [3] (setting [4]) it was 14.7827%; in the assay with Colon cancer organoid [3] (setting [5]) it was 191.434%.

In the case of `Cc1cnc(-c2cc(Cl)ccc2F)cc1-n1c(=O)n(CC(N)=O)c2cnccc21` [TP-008], the “Cell Viability” value in the assay on Colon cancer organoid [1] (setting [4]) was determined as 64.1266%; with Colon cancer organoid [1] (setting [5]), 114.054%; with Colon cancer organoid [2] (setting [4]), 74.2388%; in the assay with Colon cancer organoid [2] (setting [5]) it was 68.4272%; with Colon cancer organoid [3] (setting [4]) it was 13.7504%; with Colon cancer organoid [3] (setting [5]), 213.932%.

Regarding `CN(C)C(=O)c1ccc(-c2cc(C(=O)N[C@@H]3CCc4ccccc43)no2)cc1O`, the “Cell Viability” value was 99.2292% with Colon cancer organoid [1] (setting [4]); 104.475% in the assay on Colon cancer organoid [1] (setting [5]); 90.3054% in the assay on Colon cancer organoid [2] (setting [4]); 109.902% with Colon cancer organoid [2] (setting [5]); 113.879% with Colon cancer organoid [3] (setting [4]); 93.2478% in the assay with Colon cancer organoid [3] (setting [5]).

On to `CCn1cc(-c2cccc(C(F)(F)F)c2)c2sc(C(=N)NC3CCS(=O)(=O)CC3)cc2c1=O`, for which the “Cell Viability” value stood at 61.0963% with Colon cancer organoid [1] (setting [4]); 124.144% in the assay on Colon cancer organoid [1] (setting [5]); 135.151% in the assay on Colon cancer organoid [2] (setting [4]); 119.275% with Colon cancer organoid [2] (setting [5]); 95.4713% in the assay with Colon cancer organoid [3] (setting [4]); 165.165% in the assay with Colon cancer organoid [3] (setting [5]).

Take `Cn1cc(-c2[nH]c3cc(NC(=O)[C@H](N)C4CCCCC4)cc4c3c2C=NNC4=O)cn1`: the “Cell Viability” value with Colon cancer organoid [1] (setting [4]) is on record as 23.2406%; with Colon cancer organoid [1] (setting [5]), 172.741%; with Colon cancer organoid [2] (setting [4]) it was 1.912%; in the assay with Colon cancer organoid [2] (setting [5]), 87.1489%; in the assay with Colon cancer organoid [3] (setting [4]), 9.334%; in the assay on Colon cancer organoid [3] (setting [5]), 180.436%.

Consider `O=C(NCCCN1CCOC1=O)c1cnc(NCc2cc(Br)ccc2Br)nc1NC1CCCC1`, for which the “Cell Viability” value in the assay on Colon cancer organoid [1] (setting [4]) is 103.947%; in the assay with Colon cancer organoid [1] (setting [5]), 94.0994%; in the assay with Colon cancer organoid [2] (setting [4]), 120.927%; in the assay with Colon cancer organoid [2] (setting [5]), 72.8786%; in the assay with Colon cancer organoid [3] (setting [4]) it was 72.4903%; in the assay on Colon cancer organoid [3] (setting [5]), 99.9468%.

For `CS(=O)(=O)N1CCN(Cc2cc3nc(-c4cccc5[nH]ncc45)nc(N4CCOCC4)c3s2)CC1` [PICTILISIB], the “Cell Viability” value amounted to 42.7401% in the assay with Colon cancer organoid [2] (setting [4]), 54.6957% in the assay on Colon cancer organoid [2] (setting [5]), 43.124% in the assay on Colon cancer organoid [3] (setting [4]) and 60.0718% with Colon cancer organoid [3] (setting [5]).

`COc1ccccc1C(=O)Nc1cc2c(cc1N1CCCC1)n(C)c(=O)n2C`: the figures for the “Cell Viability” value with Colon cancer organoid [1] (setting [4]) and in the assay on Colon cancer organoid [1] (setting [5]) were 114.161% and 143.545%, respectively.
